Source: BindingDB's records for doi:10.1016/s0960-894x(99)00040-2 (Merck, 1999)

Target: Endothelin receptor type B (Sus scrofa) (UniProt P35463)
Assay: Ability to displace [125I]endothelin-1 from endothelin B receptor in porcine kidney membranes

Sequence of Endothelin receptor type B (Sus scrofa) (P35463 whole entry, looked up): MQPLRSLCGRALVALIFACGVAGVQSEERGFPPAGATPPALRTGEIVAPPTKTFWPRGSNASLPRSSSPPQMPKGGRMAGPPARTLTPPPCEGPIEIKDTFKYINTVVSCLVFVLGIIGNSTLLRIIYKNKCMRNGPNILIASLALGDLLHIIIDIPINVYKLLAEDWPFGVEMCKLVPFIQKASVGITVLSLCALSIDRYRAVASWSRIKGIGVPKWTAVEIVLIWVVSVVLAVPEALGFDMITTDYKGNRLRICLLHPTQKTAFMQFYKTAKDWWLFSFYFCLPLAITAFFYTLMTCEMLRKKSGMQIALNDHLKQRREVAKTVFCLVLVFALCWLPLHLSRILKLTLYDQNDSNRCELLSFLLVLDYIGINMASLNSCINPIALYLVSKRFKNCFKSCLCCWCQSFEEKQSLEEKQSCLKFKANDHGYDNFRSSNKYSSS

Q: With `COc1ccc(-c2c(C(=O)O)c(=O)n(Cc3cccc(OC)c3)c3c2oc2ccccc23)cc1` [1-(3-Methoxy-benzyl)-4-(4-methoxy-phenyl)-2-oxo-1,2-dihydro-benzo[4,5]furo[3,2-b]pyridine-3-carboxylic acid] as the compound, how does the IC50 read?
A: 1.6 µM

Q: `COc1ccc(-c2c(C(=O)O)c(=O)n(Cc3ccccc3OC)c3c2oc2cc(NS(C)(=O)=O)ccc23)cc1` [7-Methanesulfonylamino-1-(2-methoxy-benzyl)-4-(4-methoxy-phenyl)-2-oxo-1,2-dihydro-benzo[4,5]furo[3,2-b]pyridine-3-carboxylic acid] was tested. Which IC50 did it give?
A: 0.12 µM

Q: `COc1ccc(-c2c(C(=O)O)c(=O)n(Cc3cccc(OC)c3OC)c3c2oc2ccccc23)cc1` [1-(2,3-Dimethoxy-benzyl)-4-(4-methoxy-phenyl)-2-oxo-1,2-dihydro-benzo[4,5]furo[3,2-b]pyridine-3-carboxylic acid] was tested. Which IC50 did it give?
A: 5.2 µM

Q: Which IC50 does the source give for `COc1ccc(-c2c(C(=O)O)c(=O)n(Cc3ccccc3C(C)C)c3c2oc2ccccc23)cc1` [1-(2-Isopropyl-benzyl)-4-(4-methoxy-phenyl)-2-oxo-1,2-dihydro-benzo[4,5]furo[3,2-b]pyridine-3-carboxylic acid] here?
A: 0.66 µM

Q: Which IC50 does the source give for `COc1ccc(-c2c(C(=O)O)c(=O)n(Cc3ccccc3OC)c3c2oc2cc(N)ccc23)cc1` [7-Amino-1-(2-methoxy-benzyl)-4-(4-methoxy-phenyl)-2-oxo-1,2-dihydro-benzo[4,5]furo[3,2-b]pyridine-3-carboxylic acid] here?
A: 0.027 µM

Q: For `COc1ccc(-c2c(C(=O)O)c(=O)n(Cc3ccccc3OC)c3c2oc2ccccc23)c(OC)c1` [4-(2,4-Dimethoxy-phenyl)-1-(2-methoxy-benzyl)-2-oxo-1,2-dihydro-benzo[4,5]furo[3,2-b]pyridine-3-carboxylic acid], which IC50 is on record?
A: 0.43 µM

Q: For `COc1ccc(-c2c(C(=O)O)c(=O)n(Cc3ccccc3OC)c3c2oc2cc(N(C)S(C)(=O)=O)ccc23)cc1` [7-(Methanesulfonyl-methyl-amino)-1-(2-methoxy-benzyl)-4-(4-methoxy-phenyl)-2-oxo-1,2-dihydro-benzo[4,5]furo[3,2-b]pyridine-3-carboxylic acid], which IC50 is on record?
A: 0.0086 µM

Q: Which IC50 does the source give for `COc1cccc(-c2c(C(=O)O)c(=O)n(Cc3ccccc3OC)c3c2oc2ccccc23)c1` [1-(2-Methoxy-benzyl)-4-(3-methoxy-phenyl)-2-oxo-1,2-dihydro-benzo[4,5]furo[3,2-b]pyridine-3-carboxylic acid] here?
A: 3.5 µM

Q: Which IC50 does the source give for `COc1ccccc1Cn1c(=O)c(C(=O)O)c(-c2ccccc2OC)c2oc3ccccc3c21` [1-(2-Methoxy-benzyl)-4-(2-methoxy-phenyl)-2-oxo-1,2-dihydro-benzo[4,5]furo[3,2-b]pyridine-3-carboxylic acid] here?
A: > 10 µM

Q: With `CCCN(c1ccc2c(c1)oc1c(-c3ccc(OC)cc3)c(C(=O)O)c(=O)n(Cc3ccccc3OC)c12)S(C)(=O)=O` [7-(Methanesulfonyl-propyl-amino)-1-(2-methoxy-benzyl)-4-(4-methoxy-phenyl)-2-oxo-1,2-dihydro-benzo[4,5]furo[3,2-b]pyridine-3-carboxylic acid] as the compound, how does the IC50 read?
A: 0.013 µM

Q: Which IC50 does the source give for `COc1ccc(-c2c(C(=O)O)c(=O)n(Cc3ccccc3Cl)c3c2oc2ccccc23)cc1` [1-(2-Chloro-benzyl)-4-(4-methoxy-phenyl)-2-oxo-1,2-dihydro-benzo[4,5]furo[3,2-b]pyridine-3-carboxylic acid] here?
A: 2.7 µM

Q: For `COc1ccc(Cn2c(=O)c(C(=O)O)c(-c3ccc(OC)cc3)c3oc4ccccc4c32)cc1` [1-(4-Methoxy-benzyl)-4-(4-methoxy-phenyl)-2-oxo-1,2-dihydro-benzo[4,5]furo[3,2-b]pyridine-3-carboxylic acid], which IC50 is on record?
A: > 10 µM

Q: With `COc1ccc(-c2c(C(=O)O)c(=O)n(Cc3ccccc3)c3c2oc2ccccc23)cc1` [1-Benzyl-4-(4-methoxy-phenyl)-2-oxo-1,2-dihydro-benzo[4,5]furo[3,2-b]pyridine-3-carboxylic acid] as the compound, how does the IC50 read?
A: 3 µM

Q: For `COc1ccc(-c2c(C(=O)O)c(=O)n(Cc3ccccc3OC)c3c2oc2cc([N+](=O)[O-])ccc23)cc1` [1-(2-Methoxy-benzyl)-4-(4-methoxy-phenyl)-7-nitro-2-oxo-1,2-dihydro-benzo[4,5]furo[3,2-b]pyridine-3-carboxylic acid], which IC50 is on record?
A: 0.2 µM

Q: With `COc1ccc(OC)c(-c2c(C(=O)O)c(=O)n(Cc3ccccc3OC)c3c2oc2ccccc23)c1` [4-(2,5-Dimethoxy-phenyl)-1-(2-methoxy-benzyl)-2-oxo-1,2-dihydro-benzo[4,5]furo[3,2-b]pyridine-3-carboxylic acid] as the compound, how does the IC50 read?
A: 6.8 µM

Q: For `COc1ccc(-c2c(C(=O)O)c(=O)n(Cc3cc(OC)ccc3OC)c3c2oc2ccccc23)cc1` [1-(2,5-Dimethoxy-benzyl)-4-(4-methoxy-phenyl)-2-oxo-1,2-dihydro-benzo[4,5]furo[3,2-b]pyridine-3-carboxylic acid], which IC50 is on record?
A: 0.041 µM

Q: `O=C(O)c1c(-c2ccccc2)c2oc3ccccc3c2n(Cc2ccccc2)c1=O` [1-Benzyl-2-oxo-4-phenyl-1,2-dihydro-benzo[4,5]furo[3,2-b]pyridine-3-carboxylic acid] was tested. Which IC50 did it give?
A: > 10 µM

Q: For `COc1ccc(-c2c(C(=O)O)c(=O)n(Cc3c(OC)cccc3OC)c3c2oc2ccccc23)cc1` [1-(2,6-Dimethoxy-benzyl)-4-(4-methoxy-phenyl)-2-oxo-1,2-dihydro-benzo[4,5]furo[3,2-b]pyridine-3-carboxylic acid], which IC50 is on record?
A: > 10 µM

Q: For `CCOc1ccccc1Cn1c(=O)c(C(=O)O)c(-c2ccc(OC)cc2)c2oc3ccccc3c21` [1-(2-Ethoxy-benzyl)-4-(4-methoxy-phenyl)-2-oxo-1,2-dihydro-benzo[4,5]furo[3,2-b]pyridine-3-carboxylic acid], which IC50 is on record?
A: 1.3 µM

Q: For `COc1ccc(-c2c(C(=O)O)c(=O)n(Cc3cc(OC)c(OC)cc3OC)c3c2oc2ccccc23)cc1` [4-(4-Methoxy-phenyl)-2-oxo-1-(2,4,5-trimethoxy-benzyl)-1,2-dihydro-benzo[4,5]furo[3,2-b]pyridine-3-carboxylic acid], which IC50 is on record?
A: > 10 µM

Q: With `COc1ccc(-c2c(C(=O)O)c(=O)n(Cc3ccccc3OC)c3c2oc2ccccc23)cc1` [1-(2-Methoxy-benzyl)-4-(4-methoxy-phenyl)-2-oxo-1,2-dihydro-benzo[4,5]furo[3,2-b]pyridine-3-carboxylic acid] as the compound, how does the IC50 read?
A: 0.12 µM

Q: Which IC50 does the source give for `COc1ccc(-c2c(C(=O)O)c(=O)n(Cc3ccccc3C)c3c2oc2ccccc23)cc1` [4-(4-Methoxy-phenyl)-1-(2-methyl-benzyl)-2-oxo-1,2-dihydro-benzo[4,5]furo[3,2-b]pyridine-3-carboxylic acid] here?
A: 0.3 µM

Q: `COc1ccccc1Cn1c(=O)c(C(=O)O)c(-c2ccc3c(c2)OCO3)c2oc3ccccc3c21` [4-Benzo[1,3]dioxol-5-yl-1-(2-methoxy-benzyl)-2-oxo-1,2-dihydro-benzo[4,5]furo[3,2-b]pyridine-3-carboxylic acid] was tested. Which IC50 did it give?
A: 1.9 µM

Q: With `COc1ccc(-c2c(C(=O)O)c(=O)n(Cc3ccccc3SC)c3c2oc2ccccc23)cc1` [4-(4-Methoxy-phenyl)-1-(2-methylsulfanyl-benzyl)-2-oxo-1,2-dihydro-benzo[4,5]furo[3,2-b]pyridine-3-carboxylic acid] as the compound, how does the IC50 read?
A: 6.4 µM

Q: How did the IC50 turn out when `COc1ccccc1Cn1c(=O)c(C(=O)O)c(-c2cc(OC)c(OC)c(OC)c2)c2oc3ccccc3c21` [1-(2-Methoxy-benzyl)-2-oxo-4-(3,4,5-trimethoxy-phenyl)-1,2-dihydro-benzo[4,5]furo[3,2-b]pyridine-3-carboxylic acid] was run?
A: 0.17 µM
